The text below walks through data of patent publication US4076702A, “Dipeptide derivatives and their production” (Shionogi & Co., Ltd., priority 1974, dated 1978).

In series [1] the test system is DS male mice. Put plainly: Taming activity (inhibition of electroshock-induced fighting response). The following applies: compound given 60 minutes prior, 5 pairs per group; for ED50: Mus musculus. It is filed as in vivo. Here is the method:
This test was measured on DS male mice. […] These pairs of mice were selected in the morning and used for drug test in the afternoon. The test compound was administered to both mice of the pairs 60 minutes prior to the experiment. Results were obtained as the mean percentage of inhibition of fighting response in a group of 5 pairs and shown by ED50 [Tedeschi, et al.: J. Pharmacol Exp. Thev., 125, 28-34 (1959)].

Series [2] concerns DS male mice. Put plainly: Anti-pentylenetetrazol activity. It is filed as in vivo. To be noted: test compound orally 60 minutes prior to 125 mg/kg s.c. pentylenetetrazol, complete protection against mortality, observed two hours; for ED50: Mus musculus. An excerpt: (1) Anti-pentylenetetrazol activity:
The convulsions were disregarded.

In series [3] the test system is DS male mice. Put plainly: Rotarod performance activity. It is filed as in vivo. The following applies: fall from rod within less than 2 minutes counted as effective, 10 mice per dose; for ED50: Mus musculus. How it is done: (3) Rotarod performance activity
This test was measured on DS male mice. The mouse was put on a scraped rod of wood, 3 cm in diameter, turning at the rate of five rotations per minute. The mice that could remain on the rod for three or more minutes in successive trials were selected and placed in a group of 10 mice for each dose. If the mouse fell down from the rod within less than 2 minutes, the test compound was considered to be effective. Results were shown by ED50 [Dunham, et al.: J. Am. Pharm. Assoc., 46, 208 (1957)].

Series [4] has as its system DS male mice. The following applies: oral single dose, observed 72 hours, Bliss method.
Procedure: The test compound was orally administered to DS male mice in different single doses. For each dose, 10 mice were used, their weight ranging from 20 to 23 grams. […] The mortality was calculated by the Bliss method [Bliss: Ann.

Molecules are shown by their SMILES.

Take `CN(C(=O)CNC(=O)CN)c1ccc(Cl)cc1C(=O)c1ccccc1` [Compound No. 1, 2-benzoyl-4-chloro-N-methyl-N^α -glycyl-glycinanilide]: the “Taming activity ED50” value in the series on DS male mice [1] is given as 10.5 mg/kg. The “Anti-pentylenetetrazol activity, ED50” value with DS male mice [2] is 1.0 mg/kg. Also, in the series on DS male mice [3], the “Rotarod performance ED50” value was 36.6 mg/kg. In addition, the “Acute toxicity LD50” value in the series on DS male mice [4] was 1309 mg/kg.
Regarding `CN(C(=O)CNC(=O)CN)c1ccc(Cl)cc1C(=O)c1ccccc1Cl.O` [Compound No. 2, 2-o-chlorobenzoyl-4-chloro-N-methyl-N^α -glycyl-glycinanilide hydrate], the “Taming activity ED50” value with DS male mice [1] is listed as 3.0 mg/kg. In addition, in the series with DS male mice [2], the “Anti-pentylenetetrazol activity, ED50” value is 0.58 mg/kg. For the same molecule, the “Rotarod performance ED50” value with DS male mice [3] is recorded as 27.7 mg/kg. The “Acute toxicity LD50” value in the series on DS male mice [4] is 1255 mg/kg.
Turning to `CN(C(=O)CNC(=O)CN)c1ccc(Cl)cc1C(=O)c1ccccc1F.Cl` [Compound No. 3, 2-o-fluorobenzoyl-4-chloro-N-methyl-N^α -glycyl-glycinanilide hydrochloride], the “Taming activity ED50” value in the series on DS male mice [1] is recorded as 1.6 mg/kg. Moreover, the “Anti-pentylenetetrazol activity, ED50” value in the series with DS male mice [2] was 0.33 mg/kg. In the series with DS male mice [3], the “Rotarod performance ED50” value came to 17.0 mg/kg. Also, the “Acute toxicity LD50” value in the series with DS male mice [4] is listed as above 1000 mg/kg.
Broadly, the ED50 is the dose at which the effect has come halfway, by size or by number of responders. A lower ED50 goes with greater potency. Turning to `CNC1=Nc2ccc(Cl)cc2C(c2ccccc2)=[N+]([O-])C1` [Compound No. 4, Chlordiazepoxide, reference compound], the ED50 in the series on DS male mice [1] was determined as 24 mg/kg; with DS male mice [2] it was 3.7 mg/kg; with DS male mice [3] it was 50 mg/kg. Besides, in the series with DS male mice [4], the “Acute toxicity LD50” value is 1090 mg/kg.
Consider `CN1C(=O)CN=C(c2ccccc2)c2cc(Cl)ccc21` [Compound No. 5, Diazepam, reference compound], for which the ED50 in the series on DS male mice [1] turned out to be 6 mg/kg; with DS male mice [2], 1.19 mg/kg; with DS male mice [3], 9.03 mg/kg.
